# Reference: patent US20250092056A1, “URACIL DERIVATIVES HAVING VIRUS REPLICATION INHIBITORY ACTIVITY AND PHARMACEUTICAL COMPOSITION COMPRISING THE SAME” (Shionogi & Co., Ltd., priority 2022, published 2025)
# Like-named read-outs stand apart in the source and are kept apart here.
# Assays:
# [1] = target: Recombinant SARS-CoV-2 3CL Protease (Severe acute respiratory syndrome coronavirus 2 (2019-nCoV) (SARS-CoV-2), UniProt P0DTD1); assay: biochemical; type: biochemical; details: 50% SARS-CoV-2 3CL protease inhibitory concentration; read-out: IC50
# [2] = tested on: SARS-CoV-2; assay: Cytopathic effect (CPE) suppression effect confirmation test using HEK293T/ACE2-TMPRSS2 cells; type: cell-based; details: Severe acute respiratory syndrome coronavirus 2, HEK-293T
# [3] = 50% SARS-CoV-2 infected cell death inhibitory concentration, HEK293T/ACE2-TMPRSS2 cells, read-out: EC50
# [4] = 72 h, read-out: EC50 (50% SARS-CoV-2 infected cell death inhibitory concentration), HEK293T/ACE2-TMPRSS2 cells, CPE suppression, CellTiter-Glo 2.0 after 3 days culture
Structure (SMILES),IC50 [1] [nM],"EC50 [2, 3] [nM]","EC50 [2, 4] [nM]"
N#CCn1c(Oc2cncc(Cl)c2)c(-c2ccc(F)c(Cl)c2)c(=O)n(-c2cncc(Cl)c2)c1=O [Compound I-246],< 10,100 to 1000,
N#CCn1c(N2CC3(C2)CC(F)(F)C3)c(-c2ccc(F)c(Cl)c2)c(=O)n(-c2cncc(C#N)c2)c1=O [Compound I-247],< 10,< 100,
Cc1cncc(-n2c(=O)c(-c3ccc(F)c(Cl)c3)c(C#CC3CC3)n(CC#N)c2=O)c1 [Compound I-248],< 10,100 to 1000,
N#CCn1c(N2CC(CO)C2)c(-c2ccc(F)c(Cl)c2)c(=O)n(-c2cncc(Cl)c2)c1=O [Compound I-249],0.54,,7.9
N#CCn1c(N2CC(C(F)F)C2)c(-c2ccc(F)c(Cl)c2)c(=O)n(-c2cncc(Cl)c2)c1=O [Compound I-250],0.54,,3.31
N#CCn1c(N2CCC2)c(-c2ccc(F)c(Cl)c2)c(=O)n(-c2cncc(Cl)c2)c1=O [Compound I-251],< 10,< 100,
Cc1cnc(F)c(-n2c(=O)c(-c3ccc(F)c(Cl)c3)c(N3CC4(C3)CC(F)(F)C4)n(CC#N)c2=O)c1 [Compound I-255],< 10,< 100,
N#CCn1c(N2CC(O)(c3nccs3)C2)c(-c2ccc(F)c(Cl)c2)c(=O)n(-c2cncc(Cl)c2)c1=O [Compound I-256],< 10,< 100,
N#CCn1c(N2CC(OC(F)(F)F)C2)c(-c2ccc(F)c(Cl)c2)c(=O)n(-c2cncc(Cl)c2)c1=O [Compound I-257],0.35,,2.98
N#CCn1c(N2CC3(C2)CC(F)(F)C3)c(-c2cncc(Cl)c2)c(=O)n(-c2cncc(Cl)c2)c1=O [Compound I-258],< 10,< 100,
N#CCn1c(N2CC3(C2)CC(O)(c2ccccc2)C3)c(-c2ccc(F)c(Cl)c2)c(=O)n(-c2cncc(Cl)c2)c1=O [Compound I-259],0.45,,5.44
COc1cncc(-n2c(=O)c(-c3ccc(F)c(Cl)c3)c(N3CC4(C3)CC(F)(F)C4)n(CC#N)c2=O)n1 [Compound I-260],< 10,< 100,
N#CCn1c(N2CC(O)(c3ncccn3)C2)c(-c2ccc(F)c(Cl)c2)c(=O)n(-c2cncc(C(F)(F)F)c2)c1=O [Compound I-261],18,,34.5
CC(=O)Nc1cccc(-c2c(N3CCC(F)(F)CC3)n(CC#N)c(=O)n(-c3cncc(Cl)c3)c2=O)c1 [Compound I-263],> 100,1000 to 5000,
N#CCn1c(N2CC3(CCOC3)C2)c(C2=CCCCC2)c(=O)n(-c2cncc(Cl)c2)c1=O [Compound I-264],< 10,< 100,
N#CCn1c(-c2ccc(C3CC3)cc2)c(N2CCCCC2)c(=O)n(-c2cncc(Cl)c2)c1=O [Compound I-265],10 to 100,100 to 1000,
N#CCn1c(C2CCC(F)(F)CC2)c(-c2ccnc(C(F)(F)F)c2)c(=O)n(-c2cncc(Cl)c2)c1=O [Compound I-266],10 to 100,100 to 1000,
Cc1ccc(-c2c(-c3ccc(F)c(Cl)c3)c(=O)n(-c3cncc(C)c3)c(=O)n2CC#N)cc1 [Compound I-270],< 10,< 100,
COc1ccc(-c2c(-c3ccc(F)c(Cl)c3)c(=O)n(-c3cncc(C)c3)c(=O)n2CC#N)cc1 [Compound I-271],< 10,< 100,
Cc1cncc(-n2c(=O)c(-c3ccc(F)c(Cl)c3)c(-c3ccc(F)cc3)n(CC#N)c2=O)c1 [Compound I-272],< 10,< 100,
Cc1cncc(-n2c(=O)c(-c3ccc(F)c(Cl)c3)c(-c3ccc(C(N)=O)cc3)n(CC#N)c2=O)c1 [Compound I-273],< 10,< 100,
Cc1cncc(-n2c(=O)c(-c3ccc(F)c(Cl)c3)c(-c3ccc(N(C)C)cc3)n(CC#N)c2=O)c1 [Compound I-274],< 10,< 100,
Cc1cncc(-n2c(=O)c(-c3ccc(F)c(Cl)c3)c(-c3ccc(S(N)(=O)=O)cc3)n(CC#N)c2=O)c1 [Compound I-275],< 10,100 to 1000,
Cc1cncc(-n2c(=O)c(-c3ccc(F)c(Cl)c3)c(NS(=O)(=O)c3ccccc3)n(CC#N)c2=O)c1 [Compound I-276],< 10,< 100,

Structure (SMILES),IC50 [1] [nM],"EC50 [2, 3] [nM]","EC50 [2, 4] [nM]"
Cc1cc(-n2c(=O)c(-c3ccc(F)c(Cl)c3)c(N3CC4(C3)CC(F)(F)C4)n(CC#N)c2=O)c[n+]([O-])c1 [Compound I-278],< 10,100 to 1000,
Cc1cncc(-n2c(=O)c(-c3ccc(F)c(Cl)c3)c(-c3cn[nH]c3)n(CC#N)c2=O)c1 [Compound I-279],< 10,< 100,
Cc1cncc(-n2c(=O)c(-c3ccc(F)c(Cl)c3)c(Oc3ccccc3)n(CC#N)c2=O)c1 [Compound I-280],< 10,< 100,
N#CCn1cc(-c2ccc(F)c(Cl)c2)c(=O)n(-c2cncc(Cl)c2)c1=O [Compound I-281],10 to 100,< 100,
CCCCc1c(N2CC3(CCOC3)C2)n(CC#N)c(=O)n(-c2cncc(Cl)c2)c1=O [Compound I-284],10 to 100,< 100,
CCCCc1c(-c2ccc(F)cc2)n(CC#N)c(=O)n(-c2cncc(Cl)c2)c1=O [Compound I-286],10 to 100,100 to 1000,
N#CCn1c(N2CC(F)(c3ncccn3)C2)c(-c2ccc(F)c(Cl)c2)c(=O)n(-c2cncc(Cl)c2)c1=O [Compound I-287],< 10,< 100,
CC(C)(O)C1(F)CN(c2c(-c3ccc(F)c(Cl)c3)c(=O)n(-c3cncc(Cl)c3)c(=O)n2CC#N)C1 [Compound I-289],< 10,< 100,
N#CCn1c(N2CC(F)(F)C2)c(-c2ccc(F)c(Cl)c2)c(=O)n(-c2cncc(Cl)c2)c1=O [Compound I-290],< 10,< 100,
Cc1cncc(-n2c(=O)c(-c3cc(F)c(F)c(F)c3)c(/C=C/C(C)(C)O)n(CC#N)c2=O)c1 [Compound I-291],10 to 100,< 100,
N#CCn1c(N2CC3(CCOCC3)C2)c(-c2ccc(F)c(Cl)c2)c(=O)n(-c2cncc(Cl)c2)c1=O [Compound I-292],< 10,< 100,
N#CCn1c(N2CC(C(F)(F)F)C2)c(-c2ccc(F)c(Cl)c2)c(=O)n(-c2cncc(F)c2)c1=O [Compound I-295],< 10,< 100,
CC1(O)CN(c2c(-c3ccc(F)c(Cl)c3)c(=O)n(-c3cncc(Cl)c3)c(=O)n2CC#N)C1 [Compound I-296],< 10,< 100,
Cc1cncc(-n2c(=O)c(-c3ccc(F)c(Cl)c3)c(C3=CC4(CCOCC4)C3)n(CC#N)c2=O)c1 [Compound I-297],< 10,< 100,
N#CCn1c(N2CC(OC(F)F)C2)c(-c2ccc(F)c(Cl)c2)c(=O)n(-c2cncc(Cl)c2)c1=O [Compound I-298],< 10,< 100,
Cc1c(-c2ccc(F)c(Cl)c2)c(=O)n(-c2cncc(Cl)c2)c(=O)n1CC#N [Compound I-299],< 10,< 100,
N#CCn1c(N2CC(F)(C3CC3)C2)c(-c2ccc(F)c(Cl)c2)c(=O)n(-c2cncc(F)c2)c1=O [Compound I-300],< 10,< 100,
CC(C)=Cc1c(-c2ccc(F)c(Cl)c2)c(=O)n(-c2cncc(Cl)c2)c(=O)n1CC#N [Compound I-301],< 10,< 100,
Cn1ccc(-c2c(-c3ccc(F)c(Cl)c3)c(=O)n(-c3cncc(Cl)c3)c(=O)n2CC#N)n1 [Compound I-302],< 10,< 100,
Cn1ccc(-c2c(-c3ccc(F)c(Cl)c3)c(=O)n(-c3cncc(Cl)c3)c(=O)n2CC#N)cc1=O [Compound I-303],< 10,< 100,
N#CCn1c(N2CC3(C2)CC(F)(F)C3)c(-c2ccc(F)c(Cl)c2)c(=O)n(-c2onc3cc(F)ccc23)c1=O [Compound I-304],< 10,< 100,
N#CCn1c(N2CCC(F)(C#N)CC2)c(-c2ccc(F)c(Cl)c2)c(=O)n(-c2cncc(Cl)c2)c1=O [Compound I-305],< 10,< 100,
CC(C)(O)CCc1c(-c2ccc(F)c(Cl)c2)c(=O)n(-c2cncc(Cl)c2)c(=O)n1CC#N [Compound I-306],< 10,< 100,
CC(C)(F)Cc1c(-c2ccc(F)c(Cl)c2)c(=O)n(-c2cncc(Cl)c2)c(=O)n1CC#N [Compound I-307],< 10,< 100,
